Data as given in ChEMBL document CHEMBL1255320, “Anti-BK virus activity of nucleoside analogs” (Antimicrob Agents Chemother, 2008).

How the values were obtained:
BK polyomavirus = assay: Antimicrobial activity against BK polyomavirus ATCC VR837 infected in human WI38 cells assessed as reduction in viral titer after 7 days by PCR analysis; format: functional, organism-based; details: Betapolyomavirus hominis, ATCC VR837, WI-38, 168 h
[1] = Cytotoxicity against human WI38 cells by neutral red assay; format: cell-based, WI-38
[2] = Selectivity index, ratio of CC50 for human WI38 cells to EC50 for BK polyomavirus ATCC VR837; format: toxicity, cell-based, WI-38; details: read-out: Selectivity Index

Compound	EC50 (BK polyomavirus) [µM]	CC50 [1] [µM]	selectivity ratio [2]
CCCCCCCC/C=C\CCCCCCCC(=O)Nc1ncnc2c1ncn2CCOCP(=O)(O)O	1	165	58.9
CCCCCCCCCCCCCCCCCCOCCOP(=O)(O)CO[C@H](CO)Cn1cnc2c(N)ncnc21	0.03	0.5	11.7
Cc1cn([C@H]2C=C[C@@H](CO)O2)c(=O)[nH]c1=O [STAVUDINE]	> 100	> 100	1
CC(C)(C)C(=O)OCOP(=O)(COCCn1cnc2c(N)ncnc21)OCOC(=O)C(C)(C)C [ADEFOVIR DIPIVOXIL]	0.7	3.1	5.7
CCCCCCCCCCCCCCCCOCCCOP(=O)(O)CO[C@H](CO)Cn1cnc2c(N)ncnc21	0.02	0.8	58.5
CCCCCCCC/C=C\CCCCCCCCOC(=O)Nc1ncnc2c1ncn2CCOCP(=O)(O)O	2.3	529	233
Nc1nc2c(ncn2/C=C2/CC2(CO)CO)c(=O)[nH]1 [FILOCICLOVIR]	> 100	> 100	1
Cc1cccc2c1OP(=O)(OC[C@H]1O[C@@H](n3cc(/C=C/Br)c(=O)[nH]c3=O)CC1O)OC2 (single isomer, unassigned)	41.9	98.3	2.3
CC(C)OC(=O)OCOP(=O)(CO[C@H](C)Cn1cnc2c(N)ncnc21)OCOC(=O)OC(C)C [TENOFOVIR DISOPROXIL]	> 50	> 50	1
Cc1cn([C@H]2C[C@H](N=[N+]=[N-])[C@@H](CO)O2)c(=O)[nH]c1=O [ZIDOVUDINE]	> 100	> 100	1
Nc1nc(O)c2ncn(/C=C3/CC3CO)c2n1 (stereo unspecified) [SYNGUANOL]	> 100	> 100	1
O=c1[nH]cnc2c1ncn2[C@H]1CC[C@@H](CO)O1 [DIDANOSINE]	> 100	> 100	1
Nc1nc(=O)c2ncn(COCCOP3(=O)OCc4ccccc4O3)c2[nH]1 (stereo unspecified)	> 100	100	1
Nc1ncnc2c1ncn2/C=C1/CC1(CO)CO	40.8	312	11.9
CC(=O)OCC(CCn1cnc2cnc(N)nc21)COC(C)=O [FAMCICLOVIR]	> 0.78	> 0.78	1
Nc1ncnc2c1ncn2CCOCP(=O)(O)O [ADEFOVIR]	95.8	125	1.3
Nc1ccn([C@@H]2CS[C@H](CO)O2)c(=O)n1 [LAMIVUDINE]	> 100	> 100	1
